Reference: patent publication US20040167330A1, “Novel chelating agents and conjugates thereof, their synthesis and use as diagnois and therapeutic agents” (priority 2004, published 2004)
Entries after “also recorded” stand apart in the source; their conditions may differ.

Assays:
[1] = Formation of ^90Y-yttrium complex, radiochemical yield by TLC/HPLC; format: physicochemical; details: reaction time 0 min, [Y] = 1,2 · 10^−3 mol/l, ratio of ligand: Y = 1:1, pH = 5.5
[2] = as above; format: physicochemical
Description: Purified DO3A-P^BnNH2 was dissolved in demineralised water at a concentration of 9×10^−5 mol/l. 0.1 ml of this solution were transferred into a small reaction vial (PE). 0.1 ml ^90Y-yttrium chloride (YCl3) in 0.1 M HCl and 0.1 ml ammonium acetate buffer, pH 5.7, were added. The reaction solutions were mixed well. pH values were measured continuously while preparing the solution. 24 identical solutions were prepared accordingly and stored at 25° C. and 37° C. respectively.
Samples were taken after 15 min, 30 min, 45 min, 60 min, 90 min and 120 min and analyzed by thin layer chromatography using silica gel (POLYGRAM SIL G/UV254) or, preferably, paper (Whatman No. 1) as solid phase. TLC was run using either solvent I: 0.1 N ammonium acetate solution or solvent II: 3% sodium chloride solution as developing solution. In parallel, samples (20 μl) were analyzed by gel filtration using HPLC. The HPLC-system comprised a gamma detector (Berthold LB 506) and a UV/VIS spectrometer (Waters 486) installed in two flow through cells, respectively.
Temperature- and time-dependent studies have shown a very short reaction time for the complex formation of a ^90Y-Yttrium-DO3A-complex.
Furthermore, the effect of pH and ligand concentration on radiochemical yield was evaluated. Table 5 summarizes the results relating to the variation of pH between pH 2.0 and pH 8.9 while maintaining a constant ratio of DO3A-P^BnNH2 and Y of 3:1 and a reaction time of 60 min at 25° C. Accordingly, best labeling results are achieved at pH values of 4.9-8.0. Table 6 summarizes the results relating to the variation of the ligand concentration DO3A-P^BnNH2: Y between 1:1 up to 7:1 while maintaining a constant pH range (pH 5.2) and reaction time of 60 min at 25° C.

[3] = Stability of complex in human plasma; format: in vitro ADME; details: for High molecular weight form / Low molecular weight form: human plasma, 37° C.
Description: 4. Determination of the stability of 88Y-DO3A-P^BnNH2 complex in human plasma
4. Stability of the ^88Y-DO3A-P^BnNH2 complex was determined in human plasma at 37° C. over 14 days using standardised in vitro conditions. […] Dissociation of the radionuclide ^88Y-yttrium from the ^88Y-DO3A-P^BnNH2 complex and binding to plasma proteins (predominantly to complex forming transferrin, a protein which prefers to form complexes with trivalent elements such as Fe^3+, Co^3+ but also Y^3+) was shown only for <2% of the total activity administered to human plasma.

[4] = Elimination (cumulative excretion of radioactivity) of ^88Y-DO3A-P^BnNH2 complex; format: in vivo; details: Wistar SPF rats
Description: 2. Determination of elimination (mode and rate) of ^88Y-DO3A-P^BnNH2 complex from the organism
2. Mode and rate of elimination of ^88Y-DO3A-P^BnNH2 complex from the organism as determined by cumulative excretion of radioactivity in intervals of 0-2 h and 0-24 h respectively after intravenous injection of ^88Y-DO3A-P^BnNH2 complex into the vena saphena of Wistar SPF rats are summarized in Table 4.

human plasma proteins = assay: In vitro binding to human plasma proteins (equilibration dialysis or ultrafiltration); format: in vitro ADME; details: 37° C.
Description: 3. Determination of the in vitro binding capacity of ^88Y-DO3A-P^BnNH2 complex to human plasma proteins
3. Binding of the 88Y-DO3A-P^BnNH2 complex to human plasma proteins was evaluated at 37° C. using equilibration dialysis or ultrafiltration. 10.2±2.3% or 3.7±3.2% were bound to plasma proteins, respectively. Pharmacokinetically, reversible binding is of no importance.

SMILES: Nc1ccc(CP(=O)([O-])CN2CCN(CC(=O)[O-])CCN(CC(=O)[O-])CCN(CC(=O)[O-])CC2)cc1.[90Y+3] [^90Y-DO3A-P^BnNH2-complex]
- radiochemical yield ([1]; 25° C.): 88%
- radiochemical yield ([1]; 37° C.): 88%
- radiochemical yield ([2]; pH 2.0, [Y] = 1.5 · 10^−5 mol/l, ratio of ligand: Y = 3:1, reaction time 60 min, 25° C.): 12%
- radiochemical yield ([2]; pH 3.0, [Y] = 1.5 · 10^−5 mol/l, ratio of ligand: Y = 3:1, reaction time 60 min, 25° C.): 54%
- radiochemical yield ([2]; pH 3.9, [Y] = 1.5 · 10^−5 mol/l, ratio of ligand: Y = 3:1, reaction time 60 min, 25° C.): 77%
- radiochemical yield ([2]; pH 4.4, [Y] = 1.5 · 10^−5 mol/l, ratio of ligand: Y = 3:1, reaction time 60 min, 25° C.): 93%
- radiochemical yield ([2]; pH 4.9, [Y] = 1.5 · 10^−5 mol/l, ratio of ligand: Y = 3:1, reaction time 60 min, 25° C.): 97%
- radiochemical yield ([2]; pH 5.6, [Y] = 1.5 · 10^−5 mol/l, ratio of ligand: Y = 3:1, reaction time 60 min, 25° C.): 95%
- radiochemical yield ([2]; pH 6.0, [Y] = 1.5 · 10^−5 mol/l, ratio of ligand: Y = 3:1, reaction time 60 min, 25° C.): 93%
- radiochemical yield ([2]; pH 6.2, [Y] = 1.5 · 10^−5 mol/l, ratio of ligand: Y = 3:1, reaction time 60 min, 25° C.): 97%
- radiochemical yield ([2]; pH 6.6, [Y] = 1.5 · 10^−5 mol/l, ratio of ligand: Y = 3:1, reaction time 60 min, 25° C.): 98%
- radiochemical yield ([2]; pH 6.8, [Y] = 1.5 · 10^−5 mol/l, ratio of ligand: Y = 3:1, reaction time 60 min, 25° C.): 98%
- radiochemical yield ([2]; pH 8.0, [Y] = 1.5 · 10^−5 mol/l, ratio of ligand: Y = 3:1, reaction time 60 min, 25° C.): 98%
- radiochemical yield ([2]; pH 8.9, [Y] = 1.5 · 10^−5 mol/l, ratio of ligand: Y = 3:1, reaction time 60 min, 25° C.): 91%
- radiochemical yield ([2]; ratio of ligand:Y 1:1, [Y] = 1.2 · 10^−3 mol/l, pH = 5.2, reaction time 60 min, 25° C.): 94%
- radiochemical yield ([2]; ratio of ligand:Y 2:1, [Y] = 1.2 · 10^−3 mol/l, pH = 5.2, reaction time 60 min, 25° C.): 97%
- radiochemical yield ([2]; ratio of ligand:Y 3:1, [Y] = 1.2 · 10^−3 mol/l, pH = 5.2, reaction time 60 min, 25° C.): 98%
- radiochemical yield ([2]; ratio of ligand:Y 4:1, [Y] = 1.2 · 10^−3 mol/l, pH = 5.2, reaction time 60 min, 25° C.): 99%
- radiochemical yield ([2]; ratio of ligand:Y 5:1, [Y] = 1.2 · 10^−3 mol/l, pH = 5.2, reaction time 60 min, 25° C.): 97%
- radiochemical yield ([2]; ratio of ligand:Y 6:1, [Y] = 1.2 · 10^−3 mol/l, pH = 5.2, reaction time 60 min, 25° C.): 99%
- radiochemical yield ([2]; ratio of ligand:Y 7:1, [Y] = 1.2 · 10^−3 mol/l, pH = 5.2, reaction time 60 min, 25° C.): 97%
- radiochemical yield ([2]; reaction time 15 min, 25° C., [Y] = 1,2 · 10^−3 mol/l, ratio of ligand: Y = 1:1, pH = 5.5): 97%
- radiochemical yield ([2]; reaction time 15 min, 37° C., [Y] = 1,2 · 10^−3 mol/l, ratio of ligand: Y = 1:1, pH = 5.5): 98%
- radiochemical yield ([2]; reaction time 30 min, 25° C., [Y] = 1,2 · 10^−3 mol/l, ratio of ligand: Y = 1:1, pH = 5.5): 97%
- radiochemical yield ([2]; reaction time 30 min, 37° C., [Y] = 1,2 · 10^−3 mol/l, ratio of ligand: Y = 1:1, pH = 5.5): 98%
- radiochemical yield ([2]; reaction time 45 min, 25° C., [Y] = 1,2 · 10^−3 mol/l, ratio of ligand: Y = 1:1, pH = 5.5): 97%
- radiochemical yield ([2]; reaction time 45 min, 37° C., [Y] = 1,2 · 10^−3 mol/l, ratio of ligand: Y = 1:1, pH = 5.5): 98%
- radiochemical yield ([2]; reaction time 60 min, 25° C., [Y] = 1,2 · 10^−3 mol/l, ratio of ligand: Y = 1:1, pH = 5.5): 97%
- radiochemical yield ([2]; reaction time 60 min, 37° C., [Y] = 1,2 · 10^−3 mol/l, ratio of ligand: Y = 1:1, pH = 5.5): 97%
- radiochemical yield ([2]; reaction time 90 min, 25° C., [Y] = 1,2 · 10^−3 mol/l, ratio of ligand: Y = 1:1, pH = 5.5): 98%
- radiochemical yield ([2]; reaction time 90 min, 37° C., [Y] = 1,2 · 10^−3 mol/l, ratio of ligand: Y = 1:1, pH = 5.5): 98%
- radiochemical yield ([2]; reaction time 120 min, 25° C., [Y] = 1,2 · 10^−3 mol/l, ratio of ligand: Y = 1:1, pH = 5.5): 98%
- radiochemical yield ([2]; reaction time 120 min, 37° C., [Y] = 1,2 · 10^−3 mol/l, ratio of ligand: Y = 1:1, pH = 5.5): 99%

SMILES: Nc1ccc(CP(=O)([O-])CN2CCN(CC(=O)[O-])CCN(CC(=O)[O-])CCN(CC(=O)[O-])CC2)cc1.[88Y+3] [^88Y-DO3A-P^BnNH2 complex]
- Dissociation of the radionuclide ^88Y-yttrium from the complex and binding to plasma proteins ([3]; human plasma at 37° C. over 14 days): < 2 % of the total activity administered to human plasma
- Stability of the complex in human plasma ([3]; human plasma at 37° C. over 14 days, standardised in vitro conditions): highly stable; also recorded: high stability
- High molecular weight form ([3]; Day 0, Experiment No. 1): 0.28%
- Low molecular weight form ([3]; Day 0, Experiment No. 1): 99.72%
- High molecular weight form ([3]; Day 0, Experiment No. 2): 0.10%
- Low molecular weight form ([3]; Day 0, Experiment No. 2): 99.90%
- High molecular weight form ([3]; Day 3, Experiment No. 1): 0.75%
- Low molecular weight form ([3]; Day 3, Experiment No. 1): 99.25%
- High molecular weight form ([3]; Day 3, Experiment No. 2): 0.56%
- Low molecular weight form ([3]; Day 3, Experiment No. 2): 99.44%
- High molecular weight form ([3]; Day 5, Experiment No. 1): 0.72%
- Low molecular weight form ([3]; Day 5, Experiment No. 1): 99.28%
- High molecular weight form ([3]; Day 5, Experiment No. 2): 0.91%
- Low molecular weight form ([3]; Day 5, Experiment No. 2): 99.09%
- High molecular weight form ([3]; Day 7, Experiment No. 1): 0.79%
- Low molecular weight form ([3]; Day 7, Experiment No. 1): 99.21%
- High molecular weight form ([3]; Day 7, Experiment No. 2): 0.73%
- Low molecular weight form ([3]; Day 7, Experiment No. 2): 99.27%
- High molecular weight form ([3]; Day 10, Experiment No. 1): 0.91%
- Low molecular weight form ([3]; Day 10, Experiment No. 1): 99.09%
- High molecular weight form ([3]; Day 10, Experiment No. 2): 1.08%
- Low molecular weight form ([3]; Day 10, Experiment No. 2): 98.92%
- High molecular weight form ([3]; Day 12, Experiment No. 1): 1.17%
- Low molecular weight form ([3]; Day 12, Experiment No. 1): 98.83%
- High molecular weight form ([3]; Day 12, Experiment No. 2): 1.35%
- Low molecular weight form ([3]; Day 12, Experiment No. 2): 98.65%
- High molecular weight form ([3]; Day 14, Experiment No. 1): 1.68%
- Low molecular weight form ([3]; Day 14, Experiment No. 1): 98.32%
- High molecular weight form ([3]; Day 14, Experiment No. 2): 1.80%
- Low molecular weight form ([3]; Day 14, Experiment No. 2): 98.20%
- Cumulative excretion of radioactivity ([4]; Faeces, interval 0-24 h after intravenous injection): 3.6 ± 2.8%
- Cumulative excretion of radioactivity ([4]; Urine, interval 0-2 h after intravenous injection): 79.4 ± 5.2%
- Cumulative excretion of radioactivity ([4]; Urine, interval 0-24 h after intravenous injection): 84.3 ± 5.0%
- bound to plasma proteins (human plasma proteins; equilibration dialysis): 10.2±2.3%
- bound to plasma proteins (human plasma proteins; ultrafiltration): 3.7±3.2%
